{
  "source": "patent US20060292072A1",
  "about": "“Agents for neutron capture therapy” (Pharmacyclics, Inc., priority 2001, published 2006)",
  "key": {"tumors": {"test_system": "tumors", "settings": "prior art statement; cited from earlier work"}, "[1]": {"test_system": "V79 Chinese hamster cells", "assay": "V79 Chinese hamster cell survival assay after neutron irradiation", "format": "cell-based", "settings": "30 ppm, incubated twelve hours; neutron beam 2.8×10^11 n/cm^2 min; colony growth 5-6 days", "protocol": "In vitro activity for neutron capture therapy is determined, e.g., by measuring the effect of low-level, thermal neutron irradiation on the V79 […] cell line in culture, and measuring resultant cytotoxicity, for example as described by Fairchild et al., Cancer Research 50. After the V79 cells are exposed to a neutron capture agent, they are irradiated with a neutron beam at a fluence rate of 2.8×10^11 n/cm^2 min. The cells are plated for undisturbed colony growth for 5-6 days, after which the remaining cell population is assessed.\nThe effect of neutron irradiation on V79 Chinese hamster cells incubated for twelve hours with ^157Gd-Tex is determined by a modification of the procedure originally described by Fairchild et al., Cancer Research 50 (1990). Three sets of sample plates of V79 cells are prepared. The first set (control cells) are suspended with 30 ppm ^157Gd-Tex in growth medium. The second set (washed cells) are suspended with 30 ppm ^157Gd-Tex in growth medium, then washed 3 times with PBS, trypsinized and harvested with gadolinium from reagents prior to suspension. The third set (ambient cells) are suspended in a 30 ppm ^157Gd containing medium.\nAll of the cells are irradiated within 1-2 hours following suspension in growth medium at a population density of 3.0×10^5 cells/ml. The neutron beam fluence rate at the center of the sample is 2.8×10^11 n/cm^2 min. […]"}, "Glioma 261 tumor": {"test_system": "Glioma 261 tumor", "assay": "Neutron capture activity in mice with intracerebral Glioma 261 tumor", "format": "in vivo", "settings": "group A: Gd-Tex intravenous plus 1.2×10^12 neutrons/cm^2 (20 Gy), versus groups B-E; female C57BL/6 mice, up to 100 days", "protocol": "In vivo activity for neutron capture therapy is determined, e.g., by post-mortem histological examination of brain tumor tissue by hematoxylin and eosin, as described in Saris et al., Cancer Research, vol. 52 (1992). The antitumor effects of neutron capture therapy are evaluated by implanting Glioma 261 tumor fragments into the brain of a mouse. Approximately 3 hours after administration of a neutron capture agent to be tested, the head is irradiated a with 1.2×10^12 neutron beam (resulting in a planned dose of […]). After 100 days the mouse is sacrificed and the tumorous and non-tumorous sections of the brain are stained with hematoxylin and eosin for histologic examination. The tumor bearing and control brain tissue sections are compared.\nThis procedure is a modification of a procedure initially described by Saris et al., Cancer Research, vol. 52 (1992). Glioma 261 tumor fragments are injected approximately 2 mm deep to the dura of the brain in 42 female C57BL/6 mice. The mice are randomized into 5 groups. The mice in group A receive […] mg/kg Gd-Tex and 1.2×10^12 neutrons/cm^2 resulting in 20 Gy. Group B mice receive 1.2×10^12 neutrons/cm^2 resulting in 20 Gy. The mice in group C receive […] mg/kg Gd-Tex and 10 Gy of photon irradiation. Group D receives […] mg/kg of Gd-Tex alone. Group E receives no treatment. […]"}, "[2]": {"settings": "prior art statement; cited from earlier work"}},
  "data": [
    {"molecule": "O=C([O-])CN1CCN(CC(=O)[O-])CCN(CC(=O)O)CCN(CC(=O)[O-])CC1.[Gd+3]", "note": "[Gd-DOTA, gadoteric acid]", "values": [
      {"measurement": "selectivity for tumors / accumulation in tumor tissue", "setting": "tumors", "result": "not found to be tumor selective"}
    ]},
    {"molecule": "O=C([O-])CN(CCN(CC(=O)[O-])CC(=O)O)CCN(CC(=O)[O-])CC(=O)O.[Gd+3]", "note": "[Gd-DTPA, gadolinium diethylenetriamine-pentaacetic acid]", "values": [
      {"measurement": "selectivity for tumors / accumulation in tumor tissue", "setting": "tumors", "result": "not found to be tumor selective"}
    ]},
    {"molecule": "N[C@@H](Cc1ccc(B(O)O)cc1)C(=O)O", "note": "[p-boron-phenylalanine]", "values": [
      {"measurement": "selectivity for tumors / accumulation in tumor tissue", "setting": "tumors", "result": "limited selectivity for tumors"},
      {"measurement": "tumor/blood concentration ratios", "setting": "tumors", "result": "poor tumor/blood concentration ratios"}
    ]},
    {"molecule": "^157Gd complex of 4,5-diethyl-10,23-dimethyl-9,24-bis(3-hydroxy propyl)-16,17-bis[2-[2-(2-methoxyethoxy)ethoxy]ethoxy]pentaazapentacyclo[20.2.1.1^3,6.1^8,11.0^14,19]heptacos a-1,3,5,7,9,11(27),12,14,16,18,20,22(25),23-tridecaene bis acetate [^157Gd-Tex]", "values": [
      {"measurement": "survival of the control cells compared with the washed or ambient cells", "setting": "[1]", "result": "significantly higher"}
    ]},
    {"molecule": "bis(acetato-O)[9,10-diethyl-20,21-bis[2-[2-(2-methoxyethoxy)ethoxy]ethoxy]-4,15-dimethyl-8,11-imino-3,6:16,13-dinitrilo-1,18-benzodiazacycloeicosine-5,14-dipropanolato-N1,N18,N23,N24,N25]gadolinium [Gd-Tex]", "values": [
      {"measurement": "survival rate", "setting": "Glioma 261 tumor", "result": "greater survival rate than any of the other groups"}
    ]},
    {"molecule": "tetrakiscarborane carboxylate ester of 2,4-(a,b-dihydroxyethyl)deuteroporphyrin [BOPP]", "values": [
      {"measurement": "selectivity for tumors / accumulation in tumor tissue", "setting": "tumors", "result": "poor selectivity for tumors"},
      {"measurement": "phototoxicity", "setting": "[2]", "result": "phototoxic"}
    ]}
  ]
}
